Key:
Assay in all cases: relative viability (nuclei count vs DMSO), 5 days (fraction); higher = more cells survive
Kobe2602 + OSI-027 = compound: C1=CC(=CC=C1NC(=S)NNC2=C(C=C(C=C2[N+](=O)[O-])C(F)(F)F)[N+](=O)[O-])F [Kobe2602] + COc1cccc2cc(-c3nc([C@H]4CC[C@H](C(=O)O)CC4)n4ncnc(N)c34)[nH]c12 [OSI-027] (partner 0.5 µM)
In short: (§1)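 Relative viability is defined as nuclei in treated wells over nuclei in vehicle wells. Duplicate plates were run and medians reported. Lung cancer cell lines in 1536-well plates were dosed by pin tool one day after seeding, with one drug or with a fixed anchor-drug dose plus five library-drug doses (not always all listed) in √10 steps, and nuclei were counted after 5 days.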

Kobe2602 + Phenformin = compound: C1=CC(=CC=C1NC(=S)NNC2=C(C=C(C=C2[N+](=O)[O-])C(F)(F)F)[N+](=O)[O-])F [Kobe2602] + N=C(N)NC(=N)NCCc1ccccc1 [Phenformin] (partner 250 µM)
In short: as §1

[1] = compound: COc1cc2nccc(Oc3ccc(NC(=O)C4(C(=O)Nc5ccc(F)cc5)CC4)cc3)c2cc1OC [Cabozantinib] + CC(C)C[C@H](NC(=O)[C@H](Cc1ccccc1)NC(=O)c1cnccn1)B(O)O [Bortezomib] (partner 0.002 µM)
In short: as §1

Zosuquidar + Bortezomib = compound: O[C@@H](COc1cccc2ncccc12)CN1CCN([C@@H]2c3ccccc3[C@@H]3[C@H](c4ccccc42)C3(F)F)CC1 [Zosuquidar] + CC(C)C[C@H](NC(=O)[C@H](Cc1ccccc1)NC(=O)c1cnccn1)B(O)O [Bortezomib] (partner 0.002 µM)
In short: as §1

Cell Line | relative viability (Kobe2602 + OSI-027; first compound 0.2 µM) | relative viability (Kobe2602 + OSI-027; first compound 0.6325 µM) | relative viability (Kobe2602 + OSI-027; first compound 2 µM) | relative viability (Kobe2602 + OSI-027; first compound 6.325 µM) | relative viability (Kobe2602 + OSI-027; first compound 20 µM) | relative viability (Kobe2602 + Phenformin; first compound 0.2 µM) | relative viability (Kobe2602 + Phenformin; first compound 0.6325 µM) | relative viability (Kobe2602 + Phenformin; first compound 2 µM) | relative viability (Kobe2602 + Phenformin; first compound 6.325 µM) | relative viability (Kobe2602 + Phenformin; first compound 20 µM) | relative viability ([1]; first compound 0.02 µM) | relative viability ([1]; first compound 0.06325 µM) | relative viability ([1]; first compound 0.2 µM) | relative viability ([1]; first compound 0.6325 µM) | relative viability ([1]; first compound 2 µM) | relative viability (Zosuquidar + Bortezomib; first compound 0.01 µM) | relative viability (Zosuquidar + Bortezomib; first compound 0.03162 µM) | relative viability (Zosuquidar + Bortezomib; first compound 0.1 µM) | relative viability (Zosuquidar + Bortezomib; first compound 0.3162 µM) | relative viability (Zosuquidar + Bortezomib; first compound 1 µM)
NCI-H1650 | 0.546 | 0.756 | 0.546 | 0.631 | 0.676 | 0.483 | 0.57 | 0.395 | 0.388 | 0.366 | 0.182 | 0.212 | 0.184 | 0.199 | 0.222 | 0.227 | 0.226 | 0.206 | 0.219 | 0.222
NCI-H1651 | 0.604 | 0.663 | 0.674 | 0.618 | 0.652 | 0.415 | 0.37 | 0.356 | 0.333 | 0.414 | 0.883 | 1.03 | 0.891 | 0.904 | 0.985 | 0.928 | 0.984 | 0.882 | 0.91 | 0.866
NCI-H1666 | 0.879 | 0.831 | 0.851 | 0.928 | 0.789 | 0.594 | 0.572 | 0.534 | 0.581 | 0.573 | 0.87 | 0.934 | 0.879 | 1.02 | 0.875 | 1 | 0.905 | 0.714 | 1.15 | 0.798
NCI-H1734 | 0.657 | 0.68 | 0.619 | 0.588 | 0.745 | 0.413 | 0.408 | 0.422 | 0.347 | 0.388 | 1.04 | 1.06 | 0.987 | 0.891 | 0.951 | 0.771 | 0.959 | 0.918 | 0.997 | 1.06
NCI-H1755 | 0.748 | 0.726 | 0.685 | 0.705 | 0.747 | 0.615 | 0.608 | 0.601 | 0.662 | 0.568 | 0.962 | 1 | 0.903 | 0.895 | 0.928 | 0.923 | 0.873 | 0.901 | 1.12 | 0.934
NCI-H1792 | 0.728 | 0.732 | 0.821 | 0.5 | 0.625 | 0.253 | 0.344 | 0.249 | 0.316 | 0.31 | 0.848 | 1.19 | 0.858 | 0.946 | 0.975 | 0.836 | 0.495 | 0.906 | 0.907 | 0.96
NCI-H1915 | 0.596 | 0.71 | 0.612 | 0.656 | 0.643 | 0.366 | 0.38 | 0.37 | 0.366 | 0.361 | 1.01 | 1.02 | 0.971 | 1.01 | 0.979 | 1 | 0.995 | 1 | 1.01 | 1
NCI-H1975 | 0.673 | 0.79 | 0.687 | 0.676 | 0.669 | 0.433 | 0.442 | 0.427 | 0.379 | 0.388 | 0.409 | 0.403 | 0.357 | 0.402 | 0.389 | 0.362 | 0.34 | 0.425 | 0.437 | 0.341
NCI-H1993 | 0.552 | 0.511 | 0.544 | 0.569 | 0.597 | 0.51 | 0.453 | 0.503 | 0.501 | 0.515 | 0.829 | 1.2 | 0.716 | 0.816 | 0.988 | 1.02 | 0.99 | 1.08 | 1.17 | 1.11
NCI-H2009 | 0.568 | 0.737 | 0.591 | 0.637 | 0.452 | 0.454 | 0.503 | 0.504 | 0.421 | 0.305 | 1.06 | 1.15 | 1.07 | 1.16 | 0.998 | 0.98 | 0.917 | 0.737 | 1.16 | 0.966
NCI-H2023 | 0.394 | 0.387 | 0.346 | 0.345 | 0.278 | 0.419 | 0.442 | 0.432 | 0.352 | 0.244 | 0.893 | 0.957 | 0.819 | 0.889 | 1.03 | 0.93 | 0.939 | 0.878 | 1.4 | 1.06
NCI-H2085 | 0.685 | 0.898 |  | 0.677 | 0.799 | 0.682 | 0.687 |  | 0.684 | 0.708 | 1.22 | 1.14 | 1.08 | 1.01 | 1.03 | 1.11 | 0.987 | 0.852 | 1.1 | 1.06
NCI-H2087 | 0.695 | 0.544 | 0.501 | 0.574 | 0.652 | 0.437 | 0.47 | 0.462 | 0.471 | 0.438 | 0.863 | 1.04 | 0.702 | 0.661 | 0.815 | 0.849 | 0.701 | 0.94 | 0.923 | 0.85
NCI-H2126 | 0.715 | 0.778 | 0.675 | 0.678 | 0.701 | 0.552 | 0.53 | 0.521 | 0.513 | 0.494 | 1.13 | 1.11 | 1.1 | 1.14 | 1.11 | 1.12 | 1.04 | 1.01 | 1.19 | 1.09
NCI-H2228 | 0.658 | 0.684 | 0.549 | 0.416 | 0.722 | 0.35 | 0.449 | 0.359 | 0.295 | 0.361 | 1.04 | 1.47 | 1.33 | 1.11 | 0.926 | 1.06 | 1.02 | 0.634 | 1.14 | 1.17
NCI-H2347 | 0.425 | 0.495 | 0.403 | 0.278 | 0.571 | 0.529 | 0.48 | 0.375 | 0.469 | 0.407 | 0.875 | 1.34 | 0.944 | 0.963 | 0.666 | 1.2 | 0.979 | 1.04 | 1.22 | 0.6
